According to EP0603412A1, “COMPOUNDS BASED ON PALLADIUM AND ON DERIVATIVES OF AROMATIC AMINES AND METHOD OF OBTAINING THEM” (priority 1992, dated 1993):
Read-outs that look alike come from different tables or passages of the source.

Legend:
male mice F1(CBA57BL) = settings: single administration
Procedure: Tests were carried out on male hybrid mice F₁(CBAxC₅₇BL). About two thousands animals have been used in tests.
Acute toxicity off the invention compounds was determined in experiments on mice after a single intravenous and intraperitoneal administration. Tested compounds were injected in the form of 0.1 to 1.0 wt% solutions by syringe with the entry needle. Intraperitoneal route was effected by administering a suspension of the compounds in 1% starch size using a syringe and a metal probe. […] Toxicity doses were calculated and statistically processed via Litchfield-Wilcoxon technique modified by Z.Rott.

[1] = test system: male hybrid mice F₁(CBAxC₅₇BL); assay: Radiomodifying effect under single total γ-irradiation (survival, LD50/8, LD50/30, DCF); assay type: in vivo; settings: for DCF: based on LD50/30; for LD50/30: mouse, in vivo
Procedure: About two thousands animals have been used in tests.
Before irradiation control group of animals was intravenously administered isotonic saline solution in amount of 0.3 ml per mouse.
(§1) The mice were placed into the glass containers inserted into irradiation zone. The radiation sources were arranged in the form of "squirrel cage". The radiation doses were established by duration of the stay in active zone. […] The animals were irradiated in the range from 4.0 to 10 Gr.
(§2) A survival rate was determined on the 8th and 30th day of observation. From the data obtained were derived the curves illustrating a dependence of the survival rate upon a radiation dosage on a percentage basis. LD50/8 and LD50/30 values were estimated by extrapolation to the dosage scale.
(§3) A radiomodifying effect was evaluated by a dose change factor (DCF) calculated from the ratio of LD₅₀ in test to LD₅₀ in control.

mice [2] = assay: Radiomodifying effect under two-fold γ-irradiation at 4 hours intervals; assay type: in vivo; settings: for Survival rate: 1st fraction 4.0 Gr; for DCF: two-fold irradiation
Procedure: as §1
A survival rate was determined on the 8th and 30th day of observation. From the data obtained were derived the curves illustrating a dependence of the survival rate upon a radiation dosage on a percentage basis.
as §3

mice [3] = assay: Radiomodifying effect under five-fold γ-irradiation at 24 hours intervals; assay type: in vivo; settings: 10 mg/kg, 15 min after each fraction
Procedure: as §1, §2, §3

[4] = 10mg/kg 15 min after irradiation (Table 7)
[5] = 10mg/kg 15 min after irradiation, irradiation dose 7.5 Gr
[6] = 10mg/kg 15 min after irradiation, irradiation dose 8.0 Gr
[7] = 10mg/kg 15 min after irradiation, irradiation dose 8.5 Gr
[8] = system Ephazole/0.9% NaCl, calculated from literature equilibrium constants

Substance	DCF [1, 4]	Survival rate [1, 5] [%]	Survival rate [1, 6] [%]	LD50/30 [1] [Gr]	LD10 (male mice F1(CBA57BL); i.v.) [mg/kg]	LD50 (male mice F1(CBA57BL); i.v., observed for a month)	Survival rate [1, 7] [%]	also measured
N-methyl-N-[2-hydroxy-2(4-nitrophenyl)ethyl]ammonium palladium tetrachloride [Compound 2]	1.10	70	30	8.0				LD10 (male mice F1(CBA57BL); i.g.): 63 mg/kg; LD50 (male mice F1(CBA57BL); i.g.): 95(107-83) mg/kg; Survival rate ([1]; 10mg/kg 15 min after irradiation, irradiation dose 7.0 Gr): 90%
N-methyl-N-(2-phenyl-2-hydroxypropyl)ammonium palladium tetrachloride [Compound 4]	1.07	80	20	7.75	75	100(109.5-91.5) mg/kg	10	
N-[1,3-dihydroxy-1-(4-nitrophenyl)-prop-2-yl]ammonium palladium tetrachloride [Compound 3]	1.07	60	30	7.7	70	90(97.5-82.5) mg/kg	0	
N-methyl-N-(1-phenyl-1-hydroxy-prop-2-yl)ammonium palladium tetrachloride [Ephazole]					110			LD10 (male mice F1(CBA57BL); i.p.): 180 mg/kg; Survival rate (mice [2]; 10 mg/kg i.v. within 15 min after 1st and 2nd fraction, 2nd fraction 5.0 Gr): 90%; Survival rate (mice [2]; 10 mg/kg i.v. within 15 min after 1st and 2nd fraction, 2nd fraction 5.5 Gr): 60%; Survival rate (mice [2]; 10 mg/kg i.v. within 15 min after 1st and 2nd fraction, 2nd fraction 6.0 Gr): 20%; DCF (mice [2]; 10 mg/kg i.v. within 15 min after 1st and 2nd fraction): 1.11; Survival rate (mice [2]; 10 mg/kg i.v. within 15 min after 1st fraction, 2nd fraction 4.5 Gr): 90%; Survival rate (mice [2]; 10 mg/kg i.v. within 15 min after 1st fraction, 2nd fraction 5.0 Gr): 70%; Survival rate (mice [2]; 10 mg/kg i.v. within 15 min after 1st fraction, 2nd fraction 5.5 Gr): 30%; DCF (mice [2]; 10 mg/kg i.v. within 15 min after 1st fraction): 1.06; DCF (mice [3]): 1.47; time for using a 0.4% solution (0.4% solution in isotonic saline medium, 25°C): not over one hour; temperature over which solutions could not be heated (0.9% NaCl solutions tested at 4, 25, 40 and 100°C): ≤ 40 °C; content of [PdCl₃(H₂O)]⁻ anion under equilibrium conditions [8]: 21.3%; content of [PdCl₄]²⁻ under equilibrium conditions [8]: 78.7%; state in aqueous solutions (water as vehicle, 20 mg/10 ml and 40 mg/10 ml): profound hydrolysis
N-ethyl-N-[2-hydroxy-2(4-hydroxyphenyl)ethyl]ammonium palladium tetrachloride [Compound 5]	1.07	70	20	8.25	10	15(16.8-13.2) mg/kg	0	DCF ([1]; 10mg/kg 15 min before irradiation (Table 7)): 1.14; Survival rate ([1]; 10mg/kg 15 min before irradiation, irradiation dose 7.5 Gr): 90%; Survival rate ([1]; 10mg/kg 15 min before irradiation, irradiation dose 8.0 Gr): 70%; Survival rate ([1]; 10mg/kg 15 min before irradiation, irradiation dose 8.5 Gr): 30%; LD50/30 ([1]; listed as compound 5): 7.75 Gr
